# Data published in patent publication US20200281928A1, “VITAMIN B1 IN HIGH DOSES FOR USE IN THE MEDICAL TREATMENT OF MOTOR SYMPTOMS OF SOME SPORADIC NEURODEGENERATIVE DISEASES, OF GENETIC ORIGIN, AND OF CLUSTER HEADACHE AND OF MIGRAINE HEADACHE” (priority 2017, published 2020).
# Like-named read-outs stand apart in the source and are kept apart here.
# Assays:
# [1] = test system: Essential Tremor (also called intention tremor); details: for improvement of TETRAS ADL Subscale / improvement of TETRAS Performance subscale / TETRAS ADL Subscale score after treatment / TETRAS Performance subscale score after treatment: two 100-mg/ml vials intramuscularly per week, two months; for TETRAS ADL Subscale score after treatment: scale 0-48; for TETRAS Performance subscale score after treatment: scale 0-64
# Experimental: Two patients were studied affected by such pathology, a person and a person. The intention tremor, differently from tremor in Parkinson disease appears and increases with muscular activity. The diagnosis was made by neurologists expert in the motion disorders based upon the clinical, neuroradiological and electrophysiological data.
# Before starting the treatment, both patients were evaluated with a validated scale called TETRAS (TRG ESSENTIAL TREMOR RATING ASSESSMENT SCALE). They were re-evaluated with the same scale after two months of treatment with two 100-mg/ml vials of thiamine (vitamin B1) intramuscularly performed on Monday and on Thursday morning with the same scale.
# In turn, this scale is constituted by two sub-scales. The first one, Activities of Daily Living Subscale (ADL Subscale) measures the impact the tremor has in the activities of daily life and it has a score ranging from 0 (no impact) to 48 (maximum impact).
# The second one, Performance Subscale measures the width and the extension of tremor on the body and it has a score ranging from 0 (no tremor) to 64 (tremor with wide shocks and widespread).
# Dystonia 1 (DYT1) = details: for Fahn-Mardsen motion scale after treatment: scale 0-120; for Fahn-Mardsen disability scale after treatment: scale 0-30
# Experimental: The studied patients were two, a person and a person, parent and child. The disease is genetic and has a transmission of dominant type. The diagnosis was made in primary neurological centres based upon anamnestic, clinical and laboratory data.
# They were evaluated with Fahn-Mardsen scale of dystonia (Fahn-Mardsen Rating Scale). This scale consists of two sub-scales: 1) motion scale 2) disability scale. The first one ranges from 0 (no motion disorder) to 120 (maximum intensity and extension of the motion dystonic disorder). The second one ranges from 0 (no disability) to 30 (maximum disability)
# [2] = test system: Sporadic spinocerebellar ataxia; details: for Improvement of motor symptoms: SARA, two months of therapy; for SARA scale after therapy: two vials of thiamine 100 mg/ml twice a week, two months, scale 0-40
# Experimental: The diagnosis was made by exclusion, by excluding the genetic forms of spino cerebellar ataxia and the tumour secondary forms.
# The patients were evaluated with SARA (Scale for Assessment and Rating of Ataxia), scale validated for all disorders of cerebellar type. The score of this scale ranges from 0 (absence of symptoms) to 40 (maximum deficit).
# The diagnoses were made by Italian primary neurological centres based upon the anamnestic, clinical, evolutionary, neuroradiological and neurophysiological and molecular chemistry data.
# [3] = test system: Multisystemic Atrophy (MSA) Type Parkinson (Type P); details: for Improvement of motor symptoms: UPDRS portion III, two months of therapy; for UPDRS portion III after therapy: five 100 mg/ml vials intramuscularly per week plus low doses of other group b vitamins and magnesium, two months, scale 0-56
# Experimental: (§1) We treated four patients affected by such pathology, two women and two men with five vials intramuscularly per week of vitamin B1. One vial included 100 mg/ml of thiamine. The injection was performed each morning for the first five days of the week. The dose was determined empirically based upon the disease progression rapidity.
# (§2) Moreover, low doses of all other vitamins of group b, including folic acid, 150 mg of magnesium citrate and 150 mg of magnesium malate, were associated to the treatment.
# The patients were evaluated with UPDRS (Unified Parkinson's Disease Rating Scale), scale validated for all Parkinson forms.
# (§3) The diagnoses were made by Italian primary neurological centres based upon anamnestic, clinical, evolutionary, neuroradiological and neurophysiological data.
# [4] = test system: Multisystemic Atrophy (MSA) of Cerebellar Type (Type C); details: for Improvement of motor symptoms: SARA, two months of therapy; for SARA scale after therapy: five 100 mg/ml vials intramuscularly per week plus low doses of other group b vitamins and magnesium, two months, scale 0-40
# Experimental: as §1, with “three” for “four”, “pathology” for “pathology, two women and two men”, “A” for “One”, “every” for “each”
# as §2
# The patients were evaluated with SARA (Scale for Assessment and Rating of Ataxia), scale validated for all disorders of cerebellar type. The score of this scale ranges 0 (absence of symptoms) to 40 (maximum deficit).
# as §3
# [5] = test system: Cluster Headache (also called Horton headache); details: person
# Experimental: The patient was evaluated with Cluster Headache Quality of Life (CHQ) scale before starting the treatment and every 15 days after starting the treatment which started in December 2016. The score of this scale ranges from 28 (absence of symptoms) to 140 (maximum deficit, maximum negative influence in daily life activities).
# The patient started the therapy with 250 mg of thiamine orally, by increasing by 250 mg every three days.
# Migraine Headache = details: for MIDAS after treatment: after 30 days, scale 0-25
# Experimental: Migraine headache is the headache form characterized by a recurrent pain involving one only side of the head. The pulsating headache can last from four hours until three days and it is accompanied by nausea, vomiting, photophobia. The causes are poorly known. We studied two female patients starting from January 2017.
# The patients were evaluated with Migraine Disability Assessment Test (MIDAS) evaluation scale before starting the treatment and every 30 days after starting the treatment, which started in January 2017. The score of this scale ranges from 0 (absence of symptoms) to 25 (maximum disability, maximum negative influence in the daily life activities).
# The thiamine dose was 300 mg orally each morning.
# The thiamine dose was 500 mg every morning orally.
# [6] = patient P1, two months of treatment
# [7] = patient P2, two months of treatment
# [8] = patient P2, two months of treatment, before treatment 4
compound,measurement,setting,value
"Cc1ncc(C[n+]2csc(CCO)c2C)c(N)n1 [vitamin B1, thiamine]",improvement of TETRAS ADL Subscale,[1]; patient N1,75%
same,improvement of TETRAS Performance subscale,[1]; patient N1,74.4%
same,TETRAS ADL Subscale score after treatment,"[1]; patient N1, before treatment 16",4 scores
same,TETRAS Performance subscale score after treatment,"[1]; patient N1, before treatment 19.5",5 scores
same,improvement of TETRAS ADL Subscale,[1]; patient N2,65.3%
same,improvement of TETRAS Performance subscale,[1]; patient N2,68.2%
same,TETRAS Performance subscale score after treatment,"[1]; patient N2, before treatment 22",7 scores
same,TETRAS ADL Subscale score after treatment,"[1]; patient N2, before treatment 23",8 scores
same,alteration in the common laboratory examinations,"[1]; two Essential Tremor patients, long-term treatment never suspended",nor any alteration in the common laboratory examinations
same,side effects,"[1]; two Essential Tremor patients, long-term treatment never suspended (intramuscular vials or 4 grams each day orally)",no any side effect
same,result with the equivalent dose orally,"[1]; two Essential Tremor patients, 4 grams each day of vitamin B1 orally for some months instead of the vials",keeping the same results of the vials
same,improvement of disability scale,Dystonia 1 (DYT1); [6],35.8%
same,improvement of motion scale,Dystonia 1 (DYT1); [6],53.0%
same,Fahn-Mardsen motion scale after treatment,"Dystonia 1 (DYT1); patient P1, two months of treatment (dose not given), before treatment 66",31 scores
same,Fahn-Mardsen disability scale after treatment,"Dystonia 1 (DYT1); patient P1, two months of treatment, before treatment 14",9 scores
same,improvement of disability scale,Dystonia 1 (DYT1); [7],50.0%
same,improvement of motion scale,Dystonia 1 (DYT1); [7],50.0%
same,Fahn-Mardsen disability scale after treatment,Dystonia 1 (DYT1); [8],2 scores
same,Fahn-Mardsen motion scale after treatment,Dystonia 1 (DYT1); [8],2 scores
same,Improvement of motor symptoms,[2]; patient N1 (person nine),33.4%
same,SARA scale after therapy,"[2]; patient N1 (person nine), before therapy 9",6 scores
same,Improvement of motor symptoms,[2]; patient N2 (person four),50.0%
same,SARA scale after therapy,"[2]; patient N2 (person four), before therapy 6",3 scores
same,Improvement of motor symptoms,[3]; patient N1 (person eleven),30.8%
same,UPDRS portion III after therapy,"[3]; patient N1 (person eleven), before therapy 26",18 scores
same,Improvement of motor symptoms,[3]; patient N2 (person ten),11.8%
same,UPDRS portion III after therapy,"[3]; patient N2 (person ten), before therapy 34",30 scores
same,Improvement of motor symptoms,[3]; patient N3 (person three),55.5%
same,UPDRS portion III after therapy,"[3]; patient N3 (person three), before therapy 9",5 scores
same,Improvement of motor symptoms,[3]; patient N4,47.6%
same,UPDRS portion III after therapy,"[3]; patient N4, before therapy 21",10 scores
same,Improvement of motor symptoms,[4]; patient N1 (person one),14.3%
same,SARA scale after therapy,"[4]; patient N1 (person one), before therapy 7",6 scores
same,Improvement of motor symptoms,[4]; patient N2 (person eight),37.5%
same,SARA scale after therapy,"[4]; patient N2 (person eight), before therapy 8",3 scores
same,Improvement of motor symptoms,[4]; patient N3,16.0%
same,SARA scale after therapy,"[4]; patient N3, before therapy 25",21 scores
same,time from the beginning until the headache attacks wholly disappeared,"[5]; at the dose of 750 mg per day orally, printed as within about 8 days",≤ 8 days
same,effect of an attempt of interrupting the treatment,[5]; oral thiamine interrupted,quick re-appearance of headache episodes
same,outcome of symptoms under continued treatment,"[5]; oral thiamine, maintained by continuing the treatment (more than five months)",complete regression of the symptoms
same,CHQ after treatment,"[5]; thiamine orally, 250 mg increased by 250 mg every three days to 750 mg per day, after 15 days, before treatment 82, scale 28 (absence of symptoms) to 140",28 scores
same,days of treatment after which the regression of the episodes was already present,"Migraine Headache; migraine patients on oral thiamine, maintained by continuing the same treatment",7 days
same,MIDAS after treatment,"Migraine Headache; patient N1, 300 mg orally each morning, before treatment 19",0 scores
same,MIDAS after treatment,"Migraine Headache; patient N2 (person ten), 500 mg every morning orally, before treatment 20",0 scores
